Earlier results, collected in PMC7028125 (Clinical Pharmacology in Drug Development, 2019).

Key:
[1] = mass balance study of 20 mg [14C]‐dolutegravir (80 µCi)
[2] = tested on: organic cation transporter 2; parameters: method as in PMID 23132334; conditions: in vitro
[3] = tested on: multidrug and toxin extrusion 1 transporter; conditions: in vitro
[4] = tested on: P‐glycoprotein; parameters: method as in PMID 23132334; conditions: in vitro
[5] = tested on: breast cancer resistance protein; parameters: method as in PMID 23132334; conditions: in vitro

## C[C@@H]1CCO[C@H]2Cn3cc(C(=O)NCc4ccc(F)cc4F)c(=O)c(O)c3C(=O)N12 [Dolutegravir, dolutegravir]
[1]
  Dolutegravir recovered in feces: 64.0%
  Dolutegravir recovered in urine: 31.6%
[2]
  Inhibition of organic cation transporter 2 (in words): potently inhibits
[3]
  Inhibition of multidrug and toxin extrusion 1 transporter (in words): potently inhibits
[4]
  Substrate for P‐glycoprotein (in words): substrate
[5]
  Substrate for breast cancer resistance protein (in words): substrate
